Counter-ions that a name gives are not always drawn.
Experiments:
[1] = Administration to premenopausal healthy females for 14 days; type: in vivo, human; details: 32 premenopausal healthy females (20 to 45 years old), 1 to 25 mg/day for 14 days
Description: To 32 premenopausal healthy females (20 years old to 45 years old), 1 to 25 mg/day of the compound of Reference Example 7 was administered for 14 days. As a result, the serum estradiol concentration was reduced, but hot flash was not observed.

[2] = biological target: T1, rat GnRH receptor (Rattus norvegicus, UniProt P30969); test: 125I-leuprorelin binding inhibition, rat anterior pituitary membrane fraction; details: 1 μM compound, 4° C., 90 minutes, read-out: Binding inhibiting rate (%) Rat (1 μM)
T1 construct: Anterior pituitaries were removed from 40 Whister rats (8 weeks old, male); from tissue; host or cells: rat anterior pituitary membrane fraction
T1 sequence (P30969 1-327): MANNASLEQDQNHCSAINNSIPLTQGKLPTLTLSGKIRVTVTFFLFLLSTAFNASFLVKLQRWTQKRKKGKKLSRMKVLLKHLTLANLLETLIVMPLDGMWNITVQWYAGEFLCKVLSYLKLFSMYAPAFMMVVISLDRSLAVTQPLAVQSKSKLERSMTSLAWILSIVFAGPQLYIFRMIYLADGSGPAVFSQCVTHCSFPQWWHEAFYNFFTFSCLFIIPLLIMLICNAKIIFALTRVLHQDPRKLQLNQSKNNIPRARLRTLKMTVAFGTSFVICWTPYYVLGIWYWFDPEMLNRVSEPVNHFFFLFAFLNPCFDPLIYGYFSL

Structure (SMILES)	hot flash [1]	serum estradiol concentration [1]	inhibition at 1 µM [2]
CONC(=O)Nc1ccc(-c2sc3c(c2CN(C)Cc2ccccc2)c(=O)n(-c2ccccc2)c(=O)n3Cc2c(F)cccc2F)cc1 [Reference Example 7, 5-(N-benzyl-N-methylaminomethyl)-1-(2,6-difluorobenzyl)-6-[4-(3-methoxyureido)phenyl]-3-phenylthieno[2,3-d]pyrimidine-2,4(1H, 3H)-dione]	not observed	reduced	
CONC(=O)Nc1ccc(-c2sc3c(c2CN(C)Cc2ccccc2)c(=O)n(-c2ccccc2)c(=O)n3Cc2c(F)cccc2F)cc1 [Reference Example 8, 5-(N-benzyl-N-methylaminomethyl)-1-(2,6-difluorobenzyl)-6-[4-(3-methoxyureido)phenyl]-3-phenylthieno[2,3-d]pyrimidine-2,4(1H, 3H)-dione hydrochloride]			27%
